Structures can show the parent of a compound that is named as a salt. Where two headings read alike, the source gives them in different places.
Assays:
[1] = system: keratinocytes ("NHEK 6306", Clonetics); assay: Contraction of collagen gel seeded with keratinocytes; type: cell-based, human; conditions: 1 hour after addition, area inside contracted ring, control (gel peeling alone) = 100
Experimental: • 1) After type I collagen (“Cellmatrix Type I-A”, Nitta Gelatin), “MCDB 153 medium” (Sigma Chemical Co.), 20 mM HEPES (Wako Pure Chemical Industries) and purified water were thoroughly mixed under ice cooling, 500 μL per well were added to a 24-well plate (Falcon), followed by warming at 37° C. in an incubator to effect gelation. Using MCDB 153 medium, 1 mL aliquots of keratinocytes (“NHEK 6306”, Clonetics) were seeded at 2×10^4 cells/cm^2 onto the collagen gels, respectively. Subsequent to incubation for 24 hours, the collagen gels were peeled off with a pipette tip from the culture dishes. Shortly after that, test substances prepared to a concentration as high as 100 times the final concentration were added 10 μL by 10 μL. Upon elapsed time of 1 hour after the addition, the gels were photographed using a “Minolta α707-si Camera” with “50 Macrolens”. Subsequent to development of the pictures, contracted rings were copied onto OHP sheets, the areas inside the contracted rings were determined by image analysis software, “Image-Pro PLUS” (Media Cybanetics, Inc.), and contraction ratios (%) were calculated supposing that the contraction ratio (%) of a control (gel peeling alone) was 100.

[2] = system: ear skin pores of New Zealand white rabbits; assay: Rabbit ear skin pore size after topical application; type: in vivo; conditions: 2% solution in ethanol, 8 weeks
Experimental: Three of New Zealand white rabbits (male, about 2.5 kg) which ear skin pores were conspicuous were used. A 2% solution of Compound 9 (solvent: ethanol) was applied onto the left ear of each rabbit, and the solvent was applied onto the right ear of the rabbit as a control site, each on the inner side of the ala, twice a day, 150 μL each time.
Upon elapsed time of 8 weeks after the initiation of the application, the skin was collected, and the size of skin pores was measured by image analysis. Described specifically, each rabbit was sacrificed and then, his ears were collected. A scalpel was inserted into each ear sample around the applied site, and the skin was peeled off above the cartilage. At that time, care was exercised to avoid stretching of the skin. The skin was spread over a cork board and then, subjected to biopsy with a punch of 6 mm in diameter to collect the skin from six (6) locations on each ear. The collection was conducted such that skin samples were obtained from the same locations on both the left and right ears. […] On the image, the areas of the individual skin pores were measured, so that the skin pore area on each punched skin sample was calculated. An average of the skin pore areas on the six punched skin samples was recorded as the size of skin pores on the corresponding ear sample of the corresponding rabbit.

[3] = system: human skin fibroblasts (derived from a human fore skin); assay: Collagen gel tightening promoting ability (fibroblast-embedded collagen gel, dermis model); type: cell-based; conditions: for activity at 15 µM / activity at 50 µM: read-out: Average gel volume
Experimental: Measurement was conducted on the ability to promote the tightening of a fibroblast-embedded collagen gel as a dermis model. The collagen gel was prepared following the procedure reported in a publication [J. Cell Science, 102, 315 (1992) or J. Invest. Dermatol., 93, 792 (1989)]. Described specifically, a solution of HEPES (250 mM) in a 0.05 N sodium hydroxide solution, a 5-fold concentrate of DMEM (“GIBCO DMEM”, low glucose), FCS (2%, Fetal Calf Serum) and purified water were added under ice cooling to a collagen gel solution (product of Nitta Gelatin Inc., “type 1-A” (3.0 mg/mL, pH=3)), and finally, a suspension of human skin fibroblasts (derived from a human fore skin) was added. After the resulting mixture was thoroughly stirred to eliminate bubbles, 600 μL per well was added to 24-well dishes, followed by immediate warming at 37° C. in an incubator to effect gelation. Three to four hours later, 1 mL of serum-free DMEM medium was added to each of the wells, and the gels were separated at peripheries thereof from the corresponding dishes and were brought into a floating state. Eighteen hours after that, the medium was replaced with serum-free DMEM media which contained 100 to 10 μM of test substances, respectively, and incubation was conducted further for 48 hours.
Volume measurement of the gels was conducted by a weight measuring method similar to that reported in the publication [J. Cell Science, 102, 315 (1992)]. Described specifically, subsequent to immobilization with 10% formalin (4° C., 24 hours), the surface tension of water was reduced by the addition of Triton X100 (product of Wako Pure Chemical Industries) (1%), and the weights were measured.
Measurement results of relative volumes for the respective compounds as calculated supposing that the volume of the control was 100% are presented in Table 3.

[4] = 15 μM, 48 hours, relative volume, control = 100%
[5] = 50 μM, 48 hours, relative volume, control = 100%
[6] = Homo sapiens, Skin fibroblast, 15 μM, 48 hours, relative volume, control = 100%
[7] = Homo sapiens, Skin fibroblast, 50 μM, 48 hours, relative volume, control = 100%
[8] = Homo sapiens, Skin fibroblast, 48 h

## 1-hexadecylglycerol-3-phosphate monoarginine salt [Compound 38]
[1]; 10 μM
  Contraction ratio (%): 81.4%

## CC(C)CCCCCCCCCCCCCCCC(O)[C@@H](O)[C@@H](O)[C@H](O)[C@@H](CO)OS(=O)(=O)[O-].[Na+] (some centres unmarked) [Compound 30, 1-isostearylmannitol-5-sulfate sodium salt]
[1]; 10 μM
  Contraction ratio (%): 56.8%

## CC(C)CCCCCCCCCCCCCCCOCC(O)COP(=O)([O-])[O-].[Na+].[Na+] (centres unmarked) [Compound 9, 1-isostearylglycerol-3-phosphate disodium salt]
[1]; 50 μM
  Contraction ratio (%): 62.3%
[2]; 150 μL twice a day on ear, control sites 0.022 mm^2
  skin pore area: 0.015 mm^2
[2]; twice a day, versus solvent-applied ear
  smaller in skin pore area than the control sites: about 30%

## CCCCCCCCCCCCCCO[C@@H]1O[C@H](COS(=O)(=O)[O-])[C@H](O)[C@H](O)[C@H]1O.[Na+] [Compound 24, 1-β-O-tetradecylgalactopyranoside-6-sulfate sodium salt]
[1]; 10 μM
  Contraction ratio (%): 84.9%

## CC(C)CCCCCCCCCCCCCCCC(O)[C@@H](O)[C@@H](O)[C@H](O)[C@@H](CO)OP(=O)([O-])[O-].[Na+].[Na+] (some centres unmarked) [Compound 29, 1-isostearylmannitol-5-phosphate disodium salt]
[1]; 10 μM
  Contraction ratio (%): 53.3%

## 1-octadecylglycerol-3-phosphate monoarginine salt [Compound 39]
[1]; 10 μM
  Contraction ratio (%): 70.2%

## 1-(2-octyldodecyl)-glycerol-3-phosphate monoarginine salt [Compound 34]
[1]; 10 μM
  Contraction ratio (%): 67.3%

## 1-(2-dodecylhexadecyl)-glycerol-3-phosphate monoarginine salt [Compound 42]
[1]; 10 μM
  Contraction ratio (%): 87.7%

## 1-oleylglycerol-3-phosphate monoarginine salt [Compound 40]
[1]; 10 μM
  Contraction ratio (%): 63.0%

## 1-(2-heptylundecyl)-glycerol-3-phosphate monoarginine salt [Compound 32]
[1]; 10 μM
  Contraction ratio (%): 52.2%
[3]; [4]
  Average gel volume: 92%
[3]; [5]
  Average gel volume: 75%

## CCCCCCCCCC(CCCCCCC)COCC(O)COP(=O)([O-])[O-].[Na+].[Na+] (centres unmarked) [Compound 28, 1-(2-heptylundecyl)glycerol-3-phosphate disodium salt]
[1]; 10 μM
  Contraction ratio (%): 48.3%

## CCCCCCCCCCCCCCCCOCC(O)COP(=O)(O)O (centres unmarked) [Compound 7, 1-hexadecylglycerol-3-phosphate disodium salt]
[3]; [6]
  activity at 15 µM: 94%
[3]; [7]
  activity at 50 µM: 79%

## 1-isostearylglycerol-3-phosphate monoarginine salt [Compound 31-A]
[1]; 10 μM
  Contraction ratio (%): 56.6%
[3]; [4]
  Average gel volume: 94%
[3]; [5]
  Average gel volume: 79%

## 1-isostearylglycerol-3-phosphate monoarginine salt [Compound 31-B]
[1]; 10 μM
  Contraction ratio (%): 56.7%

## CCCCCCCCCCCCO[C@@H]1O[C@H](COS(=O)(=O)[O-])[C@@H](O)[C@H](O)[C@H]1O.[Na+] [Compound 14, 1-β-O-dodecylglucopyranoside-6-sulfate sodium salt]
[1]; 50 μM
  Contraction ratio (%): 90.0%

## CCCCCCCCCCCCCCO[C@H]1O[C@H](COS(=O)(=O)[O-])[C@H](O)[C@H](O)[C@H]1O.[Na+] [Compound 23, 1-α-O-tetradecylgalactopyranoside-6-sulfate sodium salt]
[1]; 10 μM
  Contraction ratio (%): 60.7%

## 1-(2-decyltetradecyl)glycerol-3-phosphate monoarginine salt [Compound 41]
[1]; 10 μM
  Contraction ratio (%): 87.3%

## 1-dodecylpropanediol-3-phosphate disodium salt [Compound 26]
[1]; 1 μM
  Contraction ratio (%): 73.5%

## 1-(2-hexyldecyl)-glycerol-3-phosphate monoarginine salt [Compound 33]
[1]; 10 μM
  Contraction ratio (%): 63.4%

## CCCCCCCCCCCCCCOCC(O)COP(=O)(O)O (centres unmarked) [Compound 6, 1-tetradecylglycerol-3-phosphate disodium salt]
[3]; [6]
  activity at 15 µM: 91%
[3]; [7]
  activity at 50 µM: 88%

## dodecylglucopyranosidephosphate disodium salt mixture [Compound 27]
[1]; 10 μM
  Contraction ratio (%): 67.0%

## CCCCCCCCCCCCOCC(O)COP(=O)(O)O (centres unmarked) [Compound 5, 1-dodecylglycerol-3-phosphate disodium salt]
[3]; [8]
  activity at 15 µM: 94%
  activity at 50 µM: 83%

## 1-[2-(1,3,3-trimethylbutyl)-5,7,7-trimethyloctyl]-glycerol-3-phosphate monoarginine salt [Compound 35]
[1]; 10 μM
  Contraction ratio (%): 66.9%

## CCCCCCCCCCCCCCCCCCOCC(O)COP(=O)([O-])[O-].[Na+].[Na+] (centres unmarked) [Compound 8, 1-octadecylglycerol-3-phosphate disodium salt]
[1]; 50 μM
  Contraction ratio (%): 77.0%
[3]; [8]
  activity at 15 µM: 93%
  activity at 50 µM: 77%

## CCCCCCCCCCCCCCCCCCOCC(O)COS(=O)(=O)O (centres unmarked) [Compound 2, 1-octadecylglycerol-3-sulfate sodium salt]
[3]; Homo sapiens, Skin fibroblast, 10 μM, 48 hours, relative volume, control = 100%
  activity at 10 µM: 97%
[3]; Homo sapiens, Skin fibroblast, 30 μM, 48 hours, relative volume, control = 100%
  activity at 30 µM: 92%

## 1-tetradecylglycerol-3-phosphate monoarginine salt [Compound 37]
[1]; 10 μM
  Contraction ratio (%): 63.3%

## octylglucopyranosidesulfate sodium salt mixture [Compound 18]
[1]; 50 μM
  Contraction ratio (%): 90.1%

## 1-dodecylglycerol-3-phosphate monoarginine salt [Compound 36]
[1]; 10 μM
  Contraction ratio (%): 71.3%

## CCCCCCCCCCCCOCCCOS(=O)(=O)[O-].[Na+] [Compound 25, 1-dodecylpropanediol-3-sulfate sodium salt]
[1]; 10 μM
  Contraction ratio (%): 88.0%
